# Data: PMC5884906, “Single Administration of HBK-15—a Triple 5-HT1A, 5-HT7, and 5-HT3 Receptor Antagonist—Reverses Depressive-Like Behaviors in Mouse Model of Depression Induced by Corticosterone” (Molecular Neurobiology, 2017)
# Several values for one entry are separate records, joined by “and”; a condition that tells them apart may be missing. Equal values may be shown once.
# How the values were obtained:
# [1] = test system: corticosterone-treated mice; test: sucrose preference test, chronic administration, corticosterone model; format: in vivo; details: for effect on corticosterone-induced decrease in sucrose intake: 21 days
# Experimental: The dose and route of administration of corticosterone was based on studies performed by Zhao and colleagues. Thirty minutes before, corticosterone injection mice were given (i.p.) saline, HBK-14 (1.25 or 2.5 mg/kg), HBK-15 (0.625 or 1.25 mg/kg), or fluoxetine (10 mg/kg) (Fig. 1b). Control mice received (i.p.) saline and 30 min later saline containing 0.1% dimethyl sulfoxide (DMSO) and 0.1% Tween-80 (s.c.). The experimental groups consisted of eight randomly selected animals. After the end of the procedure, animals were tested in the sucrose preference test, forced swim test, elevated plus maze test, and spontaneous locomotor activity test. Following behavioral testing, rodents were scarified and their hippocampi collected for biochemical analysis. The sucrose preference test was conducted according to the slightly modified methods described by Liu and colleagues and Filho and colleagues. The test was performed before and after the administration of corticosterone. Briefly, before the proper test, mice were housed singly and given 72 h training to acclimate to the test procedures. In the first 24 h, access ad libitum to two feeding bottles of 1% (w/v) sucrose solution was given to each mouse. After 24 h, one bottle was replaced with tap water for the next 24 h. Then, mice were deprived of water and food for the third 24 h. On the test day, the weight of each bottle (1% sucrose solution and tap water) was recorded. Test animals were then given the bottles of 1% sucrose and water for 24 h. The consumed liquid weight was measured based on the weight of each bottle of fluids after sucrose preference test minus the original starting weight. The percentage of sucrose intake was calculated using the following equation: %Sucrose intake=Sucrose intake/Sucrose intake+water intake⋅100%
# [2] = test system: corticosterone-treated mice; test: forced swim test, chronic administration, corticosterone model; format: in vivo; details: for effect on corticosterone-induced increase in immobility: 21 days
# Experimental: The dose and route of administration of corticosterone was based on studies performed by Zhao and colleagues. Thirty minutes before, corticosterone injection mice were given (i.p.) saline, HBK-14 (1.25 or 2.5 mg/kg), HBK-15 (0.625 or 1.25 mg/kg), or fluoxetine (10 mg/kg) (Fig. 1b). Control mice received (i.p.) saline and 30 min later saline containing 0.1% dimethyl sulfoxide (DMSO) and 0.1% Tween-80 (s.c.). The experimental groups consisted of eight randomly selected animals. After the end of the procedure, animals were tested in the sucrose preference test, forced swim test, elevated plus maze test, and spontaneous locomotor activity test. Following behavioral testing, rodents were scarified and their hippocampi collected for biochemical analysis. Forced swim test was performed according to the method described by Porsolt and colleagues and previously described. Mice were placed individually for 6 min in glass cylinders (height 25 cm, diameter 10 cm) containing […] (23–25 °C). The total time of immobility was recorded during the final 4 min of the test. The experiments were recorded and scored using aLab.io software by a trained observer blind to the treatments.
# [3] = test system: corticosterone-treated mice; test: spontaneous locomotor activity, chronic administration; format: in vivo; details: 6 min session
# Experimental: The doses and route of administration of the studied compounds were based on our previous experiments. […] Mice were injected with corticosterone (s.c., 20 mg/kg) at random times during the light phase for 21 consecutive days (Fig. 1b). The dose and route of administration of corticosterone was based on studies performed by Zhao and colleagues. Thirty minutes before, corticosterone injection mice were given (i.p.) saline, HBK-14 (1.25 or 2.5 mg/kg), HBK-15 (0.625 or 1.25 mg/kg), or fluoxetine (10 mg/kg) (Fig. 1b). Control mice received (i.p.) saline and 30 min later saline containing 0.1% dimethyl sulfoxide (DMSO) and 0.1% Tween-80 (s.c.). The experimental groups consisted of eight randomly selected animals. After the end of the procedure, animals were tested in the sucrose preference test, forced swim test, elevated plus maze test, and spontaneous locomotor activity test. Following behavioral testing, rodents were scarified and their hippocampi collected for biochemical analysis. The locomotor activity was performed as previously described. Locomotor activity was recorded individually for each mouse using activity cages made of clear Perspex (40 cm × 40 cm × 31 cm, Activity Cage 7441, Ugo Basile, Italy). The cages were supplied with I.R. horizontal beam emitters connected to a counter for the recording of light-beam interruptions. Each mouse was placed in a cage for a 30-min habituation period. […] The cages were disinfected with 70% ethanol after each mouse.
# [4] = test system: BDNF level in the hippocampus; test: BDNF level in the hippocampus (ELISA), chronic administration; format: in vivo, mice; details: for effect on corticosterone-induced decrease in BDNF level in the hippocampus: 21 days
# Experimental: (§1) The doses and route of administration of the studied compounds were based on our previous experiments. […] Mice were injected with corticosterone (s.c., 20 mg/kg) at random times during the light phase for 21 consecutive days (Fig. 1b). The dose and route of administration of corticosterone was based on studies performed by Zhao and colleagues. Thirty minutes before, corticosterone injection mice were given (i.p.) saline, HBK-14 (1.25 or 2.5 mg/kg), HBK-15 (0.625 or 1.25 mg/kg), or fluoxetine (10 mg/kg) (Fig. 1b). Control mice received (i.p.) saline and 30 min later saline containing 0.1% dimethyl sulfoxide (DMSO) and 0.1% Tween-80 (s.c.). The experimental groups consisted of eight randomly selected animals. After the end of the procedure, animals were tested in the sucrose preference test, forced swim test, elevated plus maze test, and spontaneous locomotor activity test. Following behavioral testing, rodents were scarified and their hippocampi collected for biochemical analysis. After the behavioral assessments, mice were sacrificed, and their brains were rapidly removed and chilled in an ice-cold saline solution. The hippocampi were dissected on a cold plate, frozen, and stored at −80 °C until assay. On the day of experiments, tissues were thawed on ice and homogenized (1:9 w/v) in phosphate-buffered saline (4 °C) and protease inhibitor cocktail was added. The 10% homogenates were prepared and homogenized for 30 s with TissueRuptor homogenizer. The homogenized tissues were centrifuged (2500×g at 4 °C for 20 min), and the supernatants were collected for further assays. Protein concentrations of BDNF and NGF in homogenates from hippocampi were determined using the enzyme-linked immunosorbent assay (ELISA) kits (BDNF: DZE201020014, SunRed Biotechnology Company; NGF: MBS825100, MyBioSource) according to the manufacturer’s instructions. […] The samples were analyzed in duplicates, and the mean concentrations were calculated. […] The intensity of the color was read at 450 nm. Absorbance was measured in a multifunction plate reader (POLARstar Omega, BMG Labtech, Germany). […]
# [5] = test system: NGF level in the hippocampus; test: NGF level in the hippocampus (ELISA), chronic administration; format: in vivo, mice; details: for effect on corticosterone-induced decrease in NGF level in the hippocampus: 21 days
# Experimental: as §1
# [6] = 1.25 mg/kg i.p. 21 days + corticosterone
# [7] = corticosterone 20 mg/kg s.c. 21 days + saline
compound,measurement,setting,value
"COc1ccccc1N1CCN(CCOCCOc2c(C)cccc2C)CC1.Cl [HBK-14, 1-[(2,6-Dimethylphenoxy)ethoxyethyl]-4-(2-methoxyphenyl)piperazine hydrochloride]",effect on corticosterone-induced decrease in sucrose intake,[1]; 1.25 or 2.5 mg/kg i.p.,inactive
same,effect on corticosterone-induced increase in immobility,[2]; 1.25 or 2.5 mg/kg i.p.,inactive
same,Number of crossings ± S.E.M,[3]; [6],406.3 ± 64.2
same,Number of crossings ± S.E.M,[3]; 2.5 mg/kg i.p. 21 days + corticosterone,400.8 ± 55.8
"COc1ccccc1N1CCN(CCOCCOc2c(C)cccc2Cl)CC1.Cl [HBK-15, 1-[(2-chloro-6-methylphenoxy)ethoxyethyl]-4-(2-methoxyphenyl)piperazine hydrochloride]",effect on corticosterone-induced decrease in sucrose intake,[1]; 1.25 mg/kg i.p.,prevented the decrease in sucrose intake
same,effect on corticosterone-induced increase in immobility,[2]; 1.25 mg/kg i.p.,prevented an increase in immobility
same,Number of crossings ± S.E.M,[3]; 0.625 mg/kg i.p. 21 days + corticosterone,466.1 ± 84.8
same,Number of crossings ± S.E.M,[3]; [6],478.9 ± 78.8
same,effect on corticosterone-induced decrease in BDNF level in the hippocampus,[4]; 1.25 mg/kg i.p.,protected corticosterone-treated mice from the decrease in the BDNF level
same,effect on corticosterone-induced decrease in NGF level in the hippocampus,[5]; 1.25 mg/kg i.p.,protected corticosterone-treated mice from the decrease in the NGF level
C[C@]12C[C@H](O)[C@H]3[C@@H](CCC4=CC(=O)CC[C@@]43C)[C@@H]1CC[C@@H]2C(=O)CO [corticosterone],decrease in percentage intake of sucrose solution vs control,[1]; [7],17% and 21%
same,increase in immobility vs control,[2]; [7],14% and 21%
same,Number of crossings ± S.E.M,[3]; [7],343.4 ± 27.3 and 394.5 ± 67.1
same,decrease in BDNF level in the hippocampus vs control,[4]; [7],44.0%
same,decrease in NGF level in the hippocampus vs control,[5]; [7],35%
"CNCCC(Oc1ccc(C(F)(F)F)cc1)c1ccccc1 (centres unmarked) [fluoxetine, reference compound]",effect on corticosterone-induced decrease in sucrose intake,[1]; 10 mg/kg i.p.,prevented the decrease in sucrose intake
same,effect on corticosterone-induced increase in immobility,[2]; 10 mg/kg i.p.,prevented an increase in immobility
same,Number of crossings ± S.E.M,[3]; 10 mg/kg i.p. 21 days + corticosterone,510.3 ± 54.0 and 423.3 ± 47.3
same,effect on corticosterone-induced decrease in BDNF level in the hippocampus,[4]; 10 mg/kg i.p.,protected corticosterone-treated mice from the decrease in the BDNF level
same,effect on corticosterone-induced decrease in NGF level in the hippocampus,[5]; 10 mg/kg i.p.,protected corticosterone-treated mice from the decrease in the NGF level
